{"source": "paper PMC6704710", "about": "“Preclinical evaluation of 3D185, a novel potent inhibitor of FGFR1/2/3 and CSF-1R, in FGFR-dependent and macrophage-dominant cancer models” (Journal of Experimental & Clinical Cancer Research : CR, 2019)", "key": {"IGF-1R(h)": {"biological_target": "T1, IGF-1R(h) (Homo sapiens, UniProt P08069)", "T1 construct": "purchased Eurofins (KinaseProfiler)", "T1 sequence (P08069 31-1367)": "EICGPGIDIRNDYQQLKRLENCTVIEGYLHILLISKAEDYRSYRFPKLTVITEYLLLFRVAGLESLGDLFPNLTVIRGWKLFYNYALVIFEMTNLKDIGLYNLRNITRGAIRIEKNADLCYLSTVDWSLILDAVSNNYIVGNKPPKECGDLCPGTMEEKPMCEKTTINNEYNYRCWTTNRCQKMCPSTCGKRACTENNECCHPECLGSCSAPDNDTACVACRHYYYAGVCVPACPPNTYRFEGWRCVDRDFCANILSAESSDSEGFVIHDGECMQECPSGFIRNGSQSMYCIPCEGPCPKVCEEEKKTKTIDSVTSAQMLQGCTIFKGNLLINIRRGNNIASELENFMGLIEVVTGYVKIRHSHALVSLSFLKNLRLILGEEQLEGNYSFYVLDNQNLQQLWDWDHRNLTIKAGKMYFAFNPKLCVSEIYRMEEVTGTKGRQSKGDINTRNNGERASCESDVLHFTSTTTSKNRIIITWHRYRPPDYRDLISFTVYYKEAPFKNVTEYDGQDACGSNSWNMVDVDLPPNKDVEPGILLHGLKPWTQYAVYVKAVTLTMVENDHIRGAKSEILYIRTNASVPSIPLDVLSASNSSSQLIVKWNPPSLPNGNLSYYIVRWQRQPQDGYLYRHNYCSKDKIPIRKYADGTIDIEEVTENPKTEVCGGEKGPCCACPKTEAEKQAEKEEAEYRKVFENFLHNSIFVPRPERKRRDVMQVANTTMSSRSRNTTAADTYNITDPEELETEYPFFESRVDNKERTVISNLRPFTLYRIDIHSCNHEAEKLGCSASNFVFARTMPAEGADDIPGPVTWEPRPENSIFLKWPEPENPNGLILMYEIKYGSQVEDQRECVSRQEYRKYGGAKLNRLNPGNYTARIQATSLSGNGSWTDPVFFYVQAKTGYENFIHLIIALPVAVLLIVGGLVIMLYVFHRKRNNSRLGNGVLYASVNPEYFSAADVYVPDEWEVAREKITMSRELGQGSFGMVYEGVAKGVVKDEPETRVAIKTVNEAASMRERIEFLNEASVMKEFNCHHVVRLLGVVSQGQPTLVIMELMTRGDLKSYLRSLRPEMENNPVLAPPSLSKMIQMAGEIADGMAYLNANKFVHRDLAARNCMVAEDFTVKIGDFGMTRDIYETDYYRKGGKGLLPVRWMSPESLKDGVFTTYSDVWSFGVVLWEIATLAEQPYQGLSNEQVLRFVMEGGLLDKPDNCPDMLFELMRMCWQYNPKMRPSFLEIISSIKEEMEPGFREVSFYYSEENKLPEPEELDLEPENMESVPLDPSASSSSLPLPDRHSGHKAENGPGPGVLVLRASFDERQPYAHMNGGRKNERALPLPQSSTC", "assay": "Eurofins kinase panel", "type": "biochemical", "details": "read-out: Inhibition rate (%)"}, "p70S6K(h)": {"biological_target": "T2, p70S6K(h) (Homo sapiens, UniProt P23443)", "T2 construct": "purchased Eurofins (KinaseProfiler)", "assay": "Eurofins kinase panel", "type": "biochemical", "details": "read-out: Inhibition rate (%)"}, "PAK6(h)": {"biological_target": "T3, PAK6(h) (Homo sapiens, UniProt Q9NQU5)", "T3 construct": "purchased Eurofins (KinaseProfiler)", "assay": "Eurofins kinase panel", "type": "biochemical", "details": "read-out: Inhibition rate (%)"}, "Met(D1246N)(h)": {"biological_target": "T4, Met(D1246N)(h) (Homo sapiens, UniProt P08581, D1228N)", "T4 construct": "purchased Eurofins (KinaseProfiler)", "assay": "Eurofins kinase panel", "type": "biochemical", "details": "read-out: Inhibition rate (%)"}, "NEK3(h)": {"biological_target": "T5, NEK3(h) (Homo sapiens, UniProt P51956)", "T5 construct": "purchased Eurofins (KinaseProfiler)", "T5 sequence (P51956 1-506)": "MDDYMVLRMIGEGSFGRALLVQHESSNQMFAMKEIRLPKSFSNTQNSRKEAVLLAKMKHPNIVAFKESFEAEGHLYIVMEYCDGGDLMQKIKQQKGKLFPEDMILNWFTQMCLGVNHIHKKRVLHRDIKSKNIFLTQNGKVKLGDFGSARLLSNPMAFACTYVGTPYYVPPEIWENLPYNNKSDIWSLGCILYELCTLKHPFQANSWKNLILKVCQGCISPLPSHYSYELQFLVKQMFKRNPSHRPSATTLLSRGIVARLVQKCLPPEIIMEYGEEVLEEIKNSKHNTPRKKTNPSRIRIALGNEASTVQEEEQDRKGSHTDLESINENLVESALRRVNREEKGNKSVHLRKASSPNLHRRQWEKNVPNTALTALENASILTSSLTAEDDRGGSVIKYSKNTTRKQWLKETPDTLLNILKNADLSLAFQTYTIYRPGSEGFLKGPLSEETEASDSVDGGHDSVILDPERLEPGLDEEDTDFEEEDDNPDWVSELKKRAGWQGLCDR", "assay": "Eurofins kinase panel", "type": "biochemical", "details": "read-out: Inhibition rate (%)"}, "SBK1(h)": {"biological_target": "T6, SBK1(h) (Homo sapiens, UniProt Q52WX2)", "T6 construct": "purchased Eurofins (KinaseProfiler)", "assay": "Eurofins kinase panel", "type": "biochemical", "details": "read-out: Inhibition rate (%)"}, "MSK1(h)": {"biological_target": "T7, MSK1(h) (Homo sapiens, UniProt O75582)", "T7 construct": "purchased Eurofins (KinaseProfiler)", "assay": "Eurofins kinase panel", "type": "biochemical", "details": "read-out: Inhibition rate (%)"}, "WNK2(h)": {"biological_target": "T8, WNK2(h) (Homo sapiens, UniProt Q9Y3S1)", "T8 construct": "purchased Eurofins (KinaseProfiler)", "T8 sequence (Q9Y3S1 whole entry)": "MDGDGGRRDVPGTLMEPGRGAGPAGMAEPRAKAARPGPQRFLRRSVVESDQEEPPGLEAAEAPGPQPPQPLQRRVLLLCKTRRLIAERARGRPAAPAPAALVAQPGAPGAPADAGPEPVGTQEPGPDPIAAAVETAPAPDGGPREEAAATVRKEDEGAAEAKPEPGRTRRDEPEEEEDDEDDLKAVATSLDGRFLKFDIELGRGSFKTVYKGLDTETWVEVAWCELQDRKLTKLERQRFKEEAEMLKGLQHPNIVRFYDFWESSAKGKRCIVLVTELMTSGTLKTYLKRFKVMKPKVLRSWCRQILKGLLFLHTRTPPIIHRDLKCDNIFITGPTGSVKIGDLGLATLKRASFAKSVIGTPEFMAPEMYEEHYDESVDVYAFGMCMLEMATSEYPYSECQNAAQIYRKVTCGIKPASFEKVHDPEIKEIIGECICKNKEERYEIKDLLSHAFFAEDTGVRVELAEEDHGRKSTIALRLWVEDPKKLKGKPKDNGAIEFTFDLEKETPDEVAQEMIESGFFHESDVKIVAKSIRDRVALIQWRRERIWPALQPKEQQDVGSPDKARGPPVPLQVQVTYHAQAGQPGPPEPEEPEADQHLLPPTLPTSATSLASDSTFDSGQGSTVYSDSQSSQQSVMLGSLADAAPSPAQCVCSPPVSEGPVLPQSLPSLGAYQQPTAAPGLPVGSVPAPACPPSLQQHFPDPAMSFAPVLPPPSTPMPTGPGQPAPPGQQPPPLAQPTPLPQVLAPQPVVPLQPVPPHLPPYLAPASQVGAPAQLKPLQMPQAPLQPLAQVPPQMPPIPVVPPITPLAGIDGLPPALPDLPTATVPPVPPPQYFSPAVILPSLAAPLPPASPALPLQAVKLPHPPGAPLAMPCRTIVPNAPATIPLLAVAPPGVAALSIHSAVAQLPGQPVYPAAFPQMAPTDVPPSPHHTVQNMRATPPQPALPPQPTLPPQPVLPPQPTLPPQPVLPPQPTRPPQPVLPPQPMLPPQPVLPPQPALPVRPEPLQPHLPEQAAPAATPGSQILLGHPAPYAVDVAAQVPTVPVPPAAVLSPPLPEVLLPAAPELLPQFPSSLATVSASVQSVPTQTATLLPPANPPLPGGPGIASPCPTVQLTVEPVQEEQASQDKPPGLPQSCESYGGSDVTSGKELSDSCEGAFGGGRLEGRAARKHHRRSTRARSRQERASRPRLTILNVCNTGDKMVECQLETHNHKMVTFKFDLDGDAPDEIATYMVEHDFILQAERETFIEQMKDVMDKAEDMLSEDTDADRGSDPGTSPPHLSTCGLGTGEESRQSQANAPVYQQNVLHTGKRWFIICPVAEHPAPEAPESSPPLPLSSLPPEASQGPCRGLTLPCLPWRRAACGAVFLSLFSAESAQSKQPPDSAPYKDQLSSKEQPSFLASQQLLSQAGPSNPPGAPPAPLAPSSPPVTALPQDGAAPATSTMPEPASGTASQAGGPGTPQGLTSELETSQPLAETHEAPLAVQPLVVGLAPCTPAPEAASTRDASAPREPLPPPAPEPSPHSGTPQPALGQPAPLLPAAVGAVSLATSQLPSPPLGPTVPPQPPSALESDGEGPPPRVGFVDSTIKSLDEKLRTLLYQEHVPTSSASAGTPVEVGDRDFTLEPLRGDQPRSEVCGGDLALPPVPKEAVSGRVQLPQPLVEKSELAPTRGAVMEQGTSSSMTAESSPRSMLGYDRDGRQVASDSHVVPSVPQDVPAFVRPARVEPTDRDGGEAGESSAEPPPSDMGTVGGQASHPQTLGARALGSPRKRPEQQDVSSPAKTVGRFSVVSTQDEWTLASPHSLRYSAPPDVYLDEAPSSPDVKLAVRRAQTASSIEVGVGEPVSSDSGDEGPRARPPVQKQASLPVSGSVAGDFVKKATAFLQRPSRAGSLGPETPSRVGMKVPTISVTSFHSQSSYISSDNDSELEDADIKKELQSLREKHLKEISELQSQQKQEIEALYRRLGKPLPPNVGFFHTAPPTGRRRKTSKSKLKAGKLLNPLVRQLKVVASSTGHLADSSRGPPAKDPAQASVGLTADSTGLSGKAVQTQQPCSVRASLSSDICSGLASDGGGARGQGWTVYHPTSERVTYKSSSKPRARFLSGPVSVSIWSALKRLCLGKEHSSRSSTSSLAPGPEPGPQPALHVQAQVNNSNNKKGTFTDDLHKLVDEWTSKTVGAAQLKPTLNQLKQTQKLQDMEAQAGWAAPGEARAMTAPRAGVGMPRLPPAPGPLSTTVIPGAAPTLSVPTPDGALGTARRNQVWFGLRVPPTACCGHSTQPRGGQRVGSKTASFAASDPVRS", "assay": "Eurofins kinase panel", "type": "biochemical", "details": "read-out: Inhibition rate (%)"}, "CDK7/cyclinH/MAT1(h)": {"biological_target": "T9, CDK7/cyclinH/MAT1(h) (Homo sapiens, UniProt P50613)", "T9 construct": "purchased Eurofins (KinaseProfiler)", "T9 sequence (P50613 whole entry)": "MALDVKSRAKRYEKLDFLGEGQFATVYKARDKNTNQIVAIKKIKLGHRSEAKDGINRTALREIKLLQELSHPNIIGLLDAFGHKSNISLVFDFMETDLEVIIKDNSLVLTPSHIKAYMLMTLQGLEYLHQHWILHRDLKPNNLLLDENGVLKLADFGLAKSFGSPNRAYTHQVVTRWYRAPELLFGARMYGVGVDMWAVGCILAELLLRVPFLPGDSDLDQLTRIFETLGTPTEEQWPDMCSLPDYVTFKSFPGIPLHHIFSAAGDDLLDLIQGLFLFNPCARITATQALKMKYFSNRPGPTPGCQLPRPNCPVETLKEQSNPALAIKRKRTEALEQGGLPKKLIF", "T9 sequence (P51946 whole entry partner)": "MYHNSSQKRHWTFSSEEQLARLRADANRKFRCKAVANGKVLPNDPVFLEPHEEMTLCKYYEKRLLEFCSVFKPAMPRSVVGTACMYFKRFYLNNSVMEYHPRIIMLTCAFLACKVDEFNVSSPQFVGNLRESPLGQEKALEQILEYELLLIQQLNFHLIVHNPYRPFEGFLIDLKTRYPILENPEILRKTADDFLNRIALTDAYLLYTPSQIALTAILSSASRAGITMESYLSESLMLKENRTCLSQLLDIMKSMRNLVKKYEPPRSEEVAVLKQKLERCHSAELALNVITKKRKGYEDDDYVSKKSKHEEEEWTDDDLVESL", "T9 sequence (P51948 whole entry partner)": "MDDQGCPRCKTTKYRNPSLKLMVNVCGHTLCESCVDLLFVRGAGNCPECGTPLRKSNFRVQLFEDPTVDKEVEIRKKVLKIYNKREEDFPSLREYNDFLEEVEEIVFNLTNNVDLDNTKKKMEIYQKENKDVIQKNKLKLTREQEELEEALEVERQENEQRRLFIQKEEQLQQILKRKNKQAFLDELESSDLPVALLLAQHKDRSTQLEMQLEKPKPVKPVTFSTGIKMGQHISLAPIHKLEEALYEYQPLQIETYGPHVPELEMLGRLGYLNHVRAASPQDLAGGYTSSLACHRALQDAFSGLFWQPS", "assay": "Eurofins kinase panel", "type": "biochemical", "details": "read-out: Inhibition rate (%)"}, "MST4(h)": {"biological_target": "T10, MST4(h) (Homo sapiens, UniProt Q9P289)", "T10 construct": "purchased Eurofins (KinaseProfiler)", "T10 sequence (Q9P289 whole entry)": "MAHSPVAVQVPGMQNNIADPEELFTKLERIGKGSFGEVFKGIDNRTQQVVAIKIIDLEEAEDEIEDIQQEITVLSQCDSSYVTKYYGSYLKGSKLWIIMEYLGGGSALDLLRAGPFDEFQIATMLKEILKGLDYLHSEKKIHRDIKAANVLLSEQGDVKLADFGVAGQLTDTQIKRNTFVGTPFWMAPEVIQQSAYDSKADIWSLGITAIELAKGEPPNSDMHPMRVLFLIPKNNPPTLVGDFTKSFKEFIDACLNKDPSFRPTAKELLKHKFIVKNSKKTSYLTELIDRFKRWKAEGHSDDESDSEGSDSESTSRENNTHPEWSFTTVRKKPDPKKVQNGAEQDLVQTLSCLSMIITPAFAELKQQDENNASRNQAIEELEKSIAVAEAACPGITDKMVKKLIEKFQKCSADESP", "assay": "Eurofins kinase panel", "type": "biochemical", "details": "read-out: Inhibition rate (%)"}, "Aurora-A(h)": {"biological_target": "T11, Aurora-A(h) (Homo sapiens, UniProt O14965)", "T11 construct": "purchased Eurofins (KinaseProfiler)", "T11 sequence (O14965 1-403)": "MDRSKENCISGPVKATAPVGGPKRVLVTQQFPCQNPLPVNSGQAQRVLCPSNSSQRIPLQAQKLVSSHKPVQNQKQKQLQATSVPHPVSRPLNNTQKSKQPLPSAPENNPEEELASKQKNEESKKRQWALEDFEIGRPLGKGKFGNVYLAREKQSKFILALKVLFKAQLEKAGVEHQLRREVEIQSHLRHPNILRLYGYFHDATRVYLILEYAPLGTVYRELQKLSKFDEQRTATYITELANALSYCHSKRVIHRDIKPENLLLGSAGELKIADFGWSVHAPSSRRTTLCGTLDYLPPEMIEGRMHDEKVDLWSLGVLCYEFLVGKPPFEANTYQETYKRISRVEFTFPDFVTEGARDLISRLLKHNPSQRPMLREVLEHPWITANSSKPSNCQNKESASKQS", "assay": "Eurofins kinase panel", "type": "biochemical", "details": "read-out: Inhibition rate (%)"}, "[1]": {"test_system": "NCI-H1581 subcutaneous xenograft", "type": "in vivo", "details": "50 mg/kg oral once daily 14 days", "experimental": "[…]. When the tumor volume reached 100–150 mm^3, the mice were randomly assigned to the vehicle control group (n = 12) or a treatment group (n = 6 per group). […].\nThe tumors were measured twice per week using a microcaliper. Tumor volume (TV) was calculated as follows: TV = (length × width^2)/2. In addition, the individual relative tumor volume (RTV) was calculated as follows: RTV = Vt / V0, where Vt is the volume on a particular day and V0 is the volume at the beginning of the treatment. The RTV is shown on the indicated days as the […] ± SEM for the indicated groups of mice. […]"}, "CLK3(h)": {"biological_target": "T12, CLK3(h) (Homo sapiens, UniProt P49761)", "T12 construct": "purchased Eurofins (KinaseProfiler)", "assay": "Eurofins kinase panel", "type": "biochemical", "details": "read-out: Inhibition rate (%)"}}}
{"molecule": "COc1cc(OC)c(Cl)c(-c2ccc3c(NC(=O)c4ccc(N5CCNC(C)(C)C5)cc4)n[nH]c3n2)c1Cl", "note": "[3D185]", "values": [{"measurement": "inhibition at 0.01 µM", "setting": "IGF-1R(h); 10 nM", "result": -5, "unit": "%"}, {"measurement": "inhibition at 0.1 µM", "setting": "IGF-1R(h); 100 nM", "result": 54, "unit": "%"}, {"measurement": "inhibition at 1 µM", "setting": "IGF-1R(h); 1000 nM", "result": 88, "unit": "%"}, {"measurement": "inhibition at 0.01 µM", "setting": "p70S6K(h); 10 nM", "result": -4, "unit": "%"}, {"measurement": "inhibition at 0.1 µM", "setting": "p70S6K(h); 100 nM", "result": -9, "unit": "%"}, {"measurement": "inhibition at 1 µM", "setting": "p70S6K(h); 1000 nM", "result": -1, "unit": "%"}, {"measurement": "inhibition at 0.01 µM", "setting": "PAK6(h); 10 nM", "result": -3, "unit": "%"}, {"measurement": "inhibition at 0.1 µM", "setting": "PAK6(h); 100 nM", "result": 12, "unit": "%"}, {"measurement": "inhibition at 1 µM", "setting": "PAK6(h); 1000 nM", "result": -4, "unit": "%"}, {"measurement": "inhibition at 0.01 µM", "setting": "Met(D1246N)(h); 10 nM", "result": -18, "unit": "%"}, {"measurement": "inhibition at 0.1 µM", "setting": "Met(D1246N)(h); 100 nM", "result": -11, "unit": "%"}, {"measurement": "inhibition at 1 µM", "setting": "Met(D1246N)(h); 1000 nM", "result": 3, "unit": "%"}, {"measurement": "inhibition at 0.01 µM", "setting": "NEK3(h); 10 nM", "result": 10, "unit": "%"}, {"measurement": "inhibition at 0.1 µM", "setting": "NEK3(h); 100 nM", "result": 13, "unit": "%"}, {"measurement": "inhibition at 1 µM", "setting": "NEK3(h); 1000 nM", "result": 5, "unit": "%"}, {"measurement": "inhibition at 0.01 µM", "setting": "SBK1(h); 10 nM", "result": -13, "unit": "%"}, {"measurement": "inhibition at 0.1 µM", "setting": "SBK1(h); 100 nM", "result": -3, "unit": "%"}, {"measurement": "inhibition at 1 µM", "setting": "SBK1(h); 1000 nM", "result": -10, "unit": "%"}, {"measurement": "inhibition at 0.01 µM", "setting": "MSK1(h); 10 nM", "result": 31, "unit": "%"}, {"measurement": "inhibition at 0.1 µM", "setting": "MSK1(h); 100 nM", "result": 19, "unit": "%"}, {"measurement": "inhibition at 1 µM", "setting": "MSK1(h); 1000 nM", "result": 24, "unit": "%"}, {"measurement": "inhibition at 0.01 µM", "setting": "WNK2(h); 10 nM", "result": 0, "unit": "%"}, {"measurement": "inhibition at 0.1 µM", "setting": "WNK2(h); 100 nM", "result": -1, "unit": "%"}, {"measurement": "inhibition at 1 µM", "setting": "WNK2(h); 1000 nM", "result": 22, "unit": "%"}, {"measurement": "inhibition at 0.01 µM", "setting": "CDK7/cyclinH/MAT1(h); 10 nM", "result": 12, "unit": "%"}, {"measurement": "inhibition at 0.1 µM", "setting": "CDK7/cyclinH/MAT1(h); 100 nM", "result": 11, "unit": "%"}, {"measurement": "inhibition at 1 µM", "setting": "CDK7/cyclinH/MAT1(h); 1000 nM", "result": 11, "unit": "%"}, {"measurement": "inhibition at 0.01 µM", "setting": "MST4(h); 10 nM", "result": 6, "unit": "%"}, {"measurement": "inhibition at 0.1 µM", "setting": "MST4(h); 100 nM", "result": 27, "unit": "%"}, {"measurement": "inhibition at 1 µM", "setting": "MST4(h); 1000 nM", "result": 70, "unit": "%"}, {"measurement": "inhibition at 0.01 µM", "setting": "Aurora-A(h); 10 nM", "result": 4, "unit": "%"}, {"measurement": "inhibition at 0.1 µM", "setting": "Aurora-A(h); 100 nM", "result": 5, "unit": "%"}, {"measurement": "inhibition at 1 µM", "setting": "Aurora-A(h); 1000 nM", "result": 3, "unit": "%"}, {"measurement": "tumor growth inhibition rate", "setting": "[1]", "result": 96.4, "unit": "%"}, {"measurement": "inhibition at 0.01 µM", "setting": "CLK3(h); 10 nM", "result": 2, "unit": "%"}, {"measurement": "inhibition at 0.1 µM", "setting": "CLK3(h); 100 nM", "result": 9, "unit": "%"}, {"measurement": "inhibition at 1 µM", "setting": "CLK3(h); 1000 nM", "result": 16, "unit": "%"}]}
